Test: Determination of relaxivities r1 and r2 of contrast agents under MRI
Assay type: physicochemical
Excerpt: During an MRI study, an MRI contrast agent generally shortens the value of a characteristic time constant known as the relaxation time of the nearby water protons at the tissues being examined to thereby enhance contrast of the image. The relaxivity of a contrast agent reflects how the relaxation rates of a solution change as a function of concentration [C]. Since a contrast agent may individually affect two relaxation rates (1/ΔT1 and 1/ΔT2), the degree of contrast as provided by a contrast agent is generally characterized under two corresponding relaxivities, i.e. r1 and r2 (L/mmol-s), which are defined by: 1/ΔT1=r1·[C] and 1/ΔT2=r2·[C]
The relaxation rates of a contrast agent in solution are obtained by graphing changes in relaxation rates (1/ΔT1) and (1/ΔT2) at different concentrations, with r1 and r2 being determined by the slopes of the graph.
For each of the contrast agents being tested, samples have been prepared in 10 different concentrations, namely, 1000 μg/ml, 750 μg/ml, 500 μg/ml, 250 μg/ml, 125 μg/ml, 62.50 μg/ml, 31.25 μg/ml, 15.63 μg/ml, 7.81 μg/ml and 3.91 μg/ml using DMF:H2O 4:1 as solvent for dilution of the respective stock samples.

[1] = 10 concentrations 3.91-1000 μg/ml in DMF:H2O 4:1

SMILES | r1 [1] [mL/µg/s] | r1 (molecular weight adjusted) [L/mmol/s]
O=[N+]([O-])[O-].O=[N+]([O-])[O-].O=[N+]([O-])[O-].[Fe+3] [Fe(NO3)3, iron nitrate] | 0.0004 | 0.0968
[Cl][Gd]([Cl])[Cl] [GdCl3] | 0.0494 | 13.0416
